Experimental data as given in ChEMBL document CHEMBL1126439, “Synthesis, biochemical activity and behavioral effects of a series of 1,4,5,6-tetrahydropyrimidines as novel ligands for M1 receptors” (Bioorg Med Chem Lett, 1992).

Legend:
Rattus norvegicus [1] = species on record: Rattus norvegicus; test: Ability to stimulate PI (phospho inositol) metabolism in rat cerebral cortex at 100 uM concentration; format: functional
[2] = biological target: Muscarinic acetylcholine receptor
Description: Inhibition of [3H](R)-QNB binding to muscarinic receptor in rat brain membranes

Rattus norvegicus [3] = species on record: Rattus norvegicus; test: Compound was evaluated for its ability to stimulate PI (phospho inositol) metabolism in the rat hippocampal slices; format: functional, Hippocampus
Rattus norvegicus [4] = species on record: Rattus norvegicus; test: Compound was evaluated for its ability to stimulate PI (phospho inositol) metabolism in the rat hippocampal slices, the 50% effective concentration was reported; format: functional; conditions: Hippocampus
Rattus norvegicus [5] = species on record: Rattus norvegicus; test: cells; conditions: Hippocampus
Description: Inhibition of PI (phospho inositol) response in rat hippocampus by the selective antagonist AF-DX 116 in the presence of 50 uM concentration of the compound

Rattus norvegicus [6] = species on record: Rattus norvegicus; test: cells; conditions: Hippocampus; remark: listed apart in the source
Description: Inhibition of PI (phospho inositol) response in rat hippocampus by the selective antagonist pirenzepine in the presence of 50 uM concentration of the compound

Rattus norvegicus [7] = species on record: Rattus norvegicus; test: tissue or blood; conditions: Hippocampus
Description: Effective concentration to stimulate PI (phospho inositol) metabolism in the rat hippocampal slices

Structure (SMILES) | Activity (Rattus norvegicus [1]) | Stimulation (Rattus norvegicus [3]) [%] | also measured
Cl.O=C(OCc1ccccc1)C1CN=CNC1 (centres undefined) | 3.5 |  | IC50 [2]: 2.6 µM
CC(=O)OC1CN=CNC1.Cl (centres undefined) | 45 | 70 | IC50 [2]: 32 µM
CC(C)OC(=O)C1CN=CNC1.Cl (centres undefined) | 7.2 |  | 
COC(=O)C1CN=CNC1.Cl (centres undefined) | 130 | 240 | EC50 (Rattus norvegicus [4]): 55 µM; IC50 (Rattus norvegicus [5]): 750 nM; IC50 (Rattus norvegicus [6]): 44 nM
CCOC(=O)C1CN=CNC1.Cl (centres undefined) | 150 |  | 
C#CCOC(=O)C1CN=CNC1.Cl (centres undefined) | 230 |  | 
CCCOC(=O)C1CN=CNC1.Cl (centres undefined) | 7.1 |  | 
CC(=O)OC1CN2CCC1CC2 (centres undefined) [ACECLIDINE] |  | 300 | EC50 (Rattus norvegicus [7]): 21 µM; IC50 (Rattus norvegicus [5]): 280 nM; IC50 (Rattus norvegicus [6]): 120 nM
C[N+](C)(C)CCOC(N)=O.[Cl-] [CARBACHOL] | 580 |  | 
